In patent US8350027B2, “Dual-acting pyrazole antihypertensive agents” (Theravance, Inc., priority 2009, dated 2013):

Legend:
[1] = biological target: T1, human AT1 receptor (Homo sapiens, UniProt P30556); test: AT1 radioligand binding assay (displacement of [Eu]AngII); details: membranes of CHO-K1 cells expressing cloned human AT1 receptor; values given as lower bounds; read-out: AT1 pKi (converted)
T1 construct: expressed in transfected cells; host or cells: CHO-K1
T1 sequence (P30556 1-359): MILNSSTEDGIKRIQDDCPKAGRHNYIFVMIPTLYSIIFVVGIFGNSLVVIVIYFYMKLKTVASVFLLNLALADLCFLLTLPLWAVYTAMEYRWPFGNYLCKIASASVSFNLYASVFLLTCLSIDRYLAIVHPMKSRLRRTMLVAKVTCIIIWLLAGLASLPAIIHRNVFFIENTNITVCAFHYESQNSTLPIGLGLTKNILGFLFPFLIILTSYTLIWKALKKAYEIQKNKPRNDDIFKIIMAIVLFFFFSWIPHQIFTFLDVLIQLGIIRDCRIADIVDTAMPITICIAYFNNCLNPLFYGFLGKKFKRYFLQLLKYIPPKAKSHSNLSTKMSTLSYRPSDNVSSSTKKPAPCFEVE
Method: A. AT1 and AT2 Radioligand Binding Assays
These in vitro assays were used to assess the ability of test compounds to bind to the AT1 and the AT2 receptors.
Membrane Preparation from Cells Expressing Human AT1 or AT2 Receptors
Chinese hamster ovary (CHO-K1) derived cell lines stably expressing the cloned human AT1 or AT2 receptors, respectively, were grown in HAM's-F12 medium supplemented with 10% fetal bovine serum, 10 μg/ml penicillin/streptomycin, and 500 μg/ml geneticin in a 5% CO2 humidified incubator at 37° C. AT2 receptor expressing cells were grown in the additional presence of 100 nM PD123,319 (AT2 antagonist). When cultures reached 80-95% confluence, the cells were washed thoroughly in PBS and lifted with 5 mM EDTA. Cells were pelleted by centrifugation and snap frozen in MeOH-dry ice and stored at −80° C. until further use.
For membrane preparation, cell pellets were resuspended in lysis buffer (25 mM Tris/HCl pH 7.5 at 4° C., 1 mM EDTA, and one tablet of Complete Protease Inhibitor Cocktail Tablets with 2 mM EDTA per 50 mL buffer (Roche cat.#1697498, Roche Molecular Biochemicals, Indianapolis, Ind.)) and homogenized using a tight-fitting Dounce glass homogenizer (10 strokes) on ice. The homogenate was centrifuged at 1000×g, the supernatant was collected and centrifuged at 20,000×g. The final pellet was resuspended in membrane buffer (75 mM Tris/HCl pH 7.5, 12.5 mM MgCl2, 0.3 mM EDTA, 1 mM EGTA, 250 mM sucrose at 4° C.) and homogenized by extrusion through a 20G gauge needle. Protein concentration of the membrane suspension was determined by the method described in Bradford (1976) Anal Biochem. 72:248-54. Membranes were snap frozen in MeOH-dry ice and stored at −80° C. until further use.
Ligand Binding Assay to Determine Compound Affinities for the Human AT1 and AT2 Angiotensin Receptors
Binding assays were performed in 96-well Acrowell filter plates (Pall Inc., cat.#5020) in a total assay volume of 100 μL with 0.2 μg membrane protein for membranes containing the human AT1 receptor, or 2 μg membrane protein for membranes containing the human AT2 receptor in assay buffer (50 mM Tris/HCl pH 7.5 at 20° C., 5 mM MgCl2, 25 μM EDTA, 0.025% BSA). Saturation binding studies for determination of Kd values of the ligand were done using N-terminally Europium-labeled angiotensin-II ([Eu]AngII, H-(Eu-N^1)-Ahx-Asp-Arg-Val-Tyr-Ile-His-Pro-Phe-OH; PerkinElmer, Boston, Mass.) at 8 different concentrations ranging from 0.1 nM to 30 nM. […] Drugs were dissolved to a concentration of 1 mM in DMSO and from there serially diluted into assay buffer. Non-specific binding was determined in the presence of 10 μM unlabeled angiotensin-II. Assays were incubated for 120 minutes in the dark, at room temperature or 37° C., and binding reactions were terminated by rapid filtration through the Acrowell filter plates followed by three washes with 200 μL ice cold wash buffer (50 mM Tris/HCl pH 7.5 at 4° C., 5 mM MgCl2) using a Waters filtration manifold. Plates were tapped dry and incubated with 50 μl DELFIA Enhancement Solution (PerkinElmer cat.#4001-0010) at room temperature for 5 minutes on a shaker. Filter-bound [Eu]AngII was quantitated immediately on a Fusion plate reader (PerkinElmer) using Time Resolved Fluorescence (TRF). Binding data were analyzed by nonlinear regression analysis with the GraphPad Prism Software package (GraphPad Software, Inc., San Diego, Calif.) using the 3-parameter model for one-site competition. The BOTTOM (curve minimum) was fixed to the value for nonspecific binding, as determined in the presence of 10 μM angiotensin II. Ki values for drugs were calculated from observed IC50 values and the Kd value of [Eu]AngII according to the Cheng-Prusoff equation described in Cheng et al. (1973) Biochem Pharmacol. 22 (23):3099-108. Selectivities of test compounds for the AT1 receptor over the AT2 receptor were calculated as the ratio of AT2Ki/AT1Ki. […]

[2] = biological target: T2, NEP enzyme (Homo sapiens, UniProt P08473); test: NEP enzyme inhibition assay (fluorogenic peptide substrate); format: biochemical; details: values given as lower bounds; * = prodrugs, may not exhibit NEP activity in an in vitro assay; read-out: NEP pIC50 (converted)
T2 construct: purchased R&D Systems, Minneapolis, Minn; 1182-ZN
Method: B. In Vitro Assays for the Quantitation of Inhibitor Potencies (IC50) at Human and Rat NEP, and Human ACE
The inhibitory activities of compounds at human and rat NEP and human ACE were determined using in vitro assays as described below.
Recombinant human NEP and recombinant human ACE were obtained commercially (R&D Systems, Minneapolis, Minn., catalog numbers 1182-ZN and 929-ZN, respectively). The fluorogenic peptide substrate Mca-BK2 (Mca-Arg-Pro-Pro-Gly-Phe-Ser-Ala-Phe-Lys(Dnp)-OH; Johnson et al. (2000) Anal. Biochem. 286: 112-118) was used for the human NEP and ACE assays, and Mca-RRL (Mca-DArg-Arg-Leu-(Dnp)-OH; Medeiros et al. (1997) Braz. J. Med. Biol. Res. 30:1157-1162) was used for the rat NEP assay (both from Anaspec, San Jose, Calif.).
The assays were performed in 384-well white opaque plates at room temperature using the respective fluorogenic peptides at a concentration of 10 μM in assay buffer (50 mM Tris/HCl at 25° C., 100 mM NaCl, 0.01% Tween-20, 1 μM Zn, 0.025% BSA). […] The rat NEP enzyme preparation was used at a concentration that yielded quantitative proteolysis of 3 μM of Mca-RRL within 20 minutes at room temperature.
Test compounds were diluted to 12 concentrations from 10 μM to 20 pM in Assay Buffer. Assays were started by adding 25 μL of enzyme to 12.5 μL of test compound at each of the 12 concentrations. Test compounds were allowed to equilibrate with the enzyme for 10 minutes before 12.5 μL of the fluorogenic substrates were added to initiate the reaction. Reactions were terminated by the addition of 10 μL of 3.6% glacial acetic acid after 20 minutes of incubation.
For sulfhydryl-containing test compounds, the test compounds may be diluted in Assay Buffer containing a 400 μM concentration of tris(2-carboxyethyl)phosphine hydrochloride (Thermo Scientific, Rockford, Ill.) (TCEP). The test compounds are then incubated for 40 minutes at room temperature (to allow for dimer cleavage) before adding the enzyme. Test compounds are then allowed to equilibrate with the enzyme for 20 minutes before adding the fluorogenic substrates. Reactions are terminated as above.
Plates were read on a fluorometer with excitation and emission wavelengths set to 320 nm and 405 nm, respectively. Raw data (relative fluorescence units) were normalized to % activity from the average high readings (no inhibition, 100% enzyme activity) and average low readings (full inhibition, highest inhibitor concentration, 0% enzyme activity) using three standard NEP and ACE inhibitors, respectively. Nonlinear regression of the normalized data was performed using a one site competition model (GraphPad Software, Inc., San Diego, Calif.). Data were reported as pIC50 values.

T2 sequence (P08473 52-750 limits assumed): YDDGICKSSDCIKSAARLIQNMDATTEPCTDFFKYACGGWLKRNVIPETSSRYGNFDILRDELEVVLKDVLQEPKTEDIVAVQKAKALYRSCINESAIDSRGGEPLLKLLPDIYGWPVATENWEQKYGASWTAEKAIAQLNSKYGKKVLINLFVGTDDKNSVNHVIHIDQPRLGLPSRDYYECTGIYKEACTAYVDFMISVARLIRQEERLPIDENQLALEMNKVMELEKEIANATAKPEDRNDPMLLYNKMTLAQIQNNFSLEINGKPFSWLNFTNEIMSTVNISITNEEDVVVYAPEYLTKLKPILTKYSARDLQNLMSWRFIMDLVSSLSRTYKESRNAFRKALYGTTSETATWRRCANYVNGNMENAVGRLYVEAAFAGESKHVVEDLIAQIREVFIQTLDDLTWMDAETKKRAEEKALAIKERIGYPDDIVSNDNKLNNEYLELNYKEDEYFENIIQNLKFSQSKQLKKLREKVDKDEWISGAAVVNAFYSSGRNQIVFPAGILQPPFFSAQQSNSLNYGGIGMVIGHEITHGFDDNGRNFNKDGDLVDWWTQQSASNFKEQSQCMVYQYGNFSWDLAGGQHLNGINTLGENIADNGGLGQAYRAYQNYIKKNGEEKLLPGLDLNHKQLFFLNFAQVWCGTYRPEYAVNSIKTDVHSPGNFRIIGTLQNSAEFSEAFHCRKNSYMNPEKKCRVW

Row | Structure (SMILES) | Ki [1] [nM] | IC50 [2] [nM]
1 | CCCc1cc(C(=O)N[C@H](CC(C)C)CN(O)C=O)nn1Cc1ccc(-c2ccccc2-c2nnn[nH]2)cc1 [Example 3-25, 5-Propyl-1-[2′-(1H-tetrazol-5-yl)-biphenyl-4-ylmethyl]-1H-pyrazole-3-carboxylic acid {(R)-1-[(formylhydroxyamino)methyl]-3-methylbutyl}amide] | ≤ 10 | ≤ 100
2 | CCCc1cc(C(=O)N[C@H](Cc2ccccc2)[C@@H](O)C(=O)O)nn1Cc1c(F)cc(-c2ccccc2-c2nnn[nH]2)cc1F [Example 3-26, (2R,3R)-3-(1-((3,5-difluoro-2′-(1H-tetrazol-5-yl)biphenyl-4-yl)methyl)-5-propyl-1H-pyrazole-3-carboxamido)-2-hydroxy-4-phenylbutanoic acid] | ≤ 100 | ≤ 100
3 | CCCc1cc(C(=O)N[C@@H](CC(=O)OC)Cc2ccccc2)nn1Cc1ccc(-c2ccccc2-c2nnn[nH]2)cc1 [Example 3-27, (R)-4-Phenyl-3-({5-propyl-1-[2′-(1H-tetrazol-5-yl)-biphenyl-4-ylmethyl]-1H-pyrazole-3-carbonyl}amino)butyric acid methyl ester] | ≤ 10 | ≤ 10000
4 | CCCc1cc(C(=O)N[C@@H](CC(=O)OC)Cc2ccccc2Cl)nn1Cc1ccc(-c2ccccc2-c2nnn[nH]2)cc1 [Example 3-28, (R)-4-(2-Chlorophenyl)-3-({5-propyl-1-[2′-(1H-tetrazol-5-yl)biphenyl-4-ylmethyl]-1H-pyrazole-3-carbonyl}amino)butyric acid methyl ester] | ≤ 10 | ≤ 10000
5 | CCCc1cc(C(=O)N[C@@H](CC(=O)OC)Cc2ccccc2C)nn1Cc1ccc(-c2ccccc2-c2nnn[nH]2)cc1 [Example 3-29, (R)-3-({5-Propyl-1-[2′-(1H-tetrazol-5-yl)-biphenyl-4-ylmethyl]-1H-pyrazole-3-carbonyl}amino)-4-o-tolyl-butyric acid methyl ester] | ≤ 10 | ≤ 10000
6 | CCCc1cc(C(=O)N[C@@H](CC(=O)O)Cc2ccccc2)nn1Cc1ccc(-c2ccccc2-c2nnn[nH]2)cc1F [Example 3-30, (R)-3-({1-[3-Fluoro-2′-(1H-tetrazol-5-yl)biphenyl-4-ylmethyl]-5-propyl-1H-pyrazole-3-carbonyl}amino)-4-phenylbutyric acid] | ≤ 10 | ≤ 10000
7 | CCOc1cc(C(=O)N[C@@H](CC(=O)O)Cc2ccccc2)nn1Cc1ccc(-c2ccccc2-c2nnn[nH]2)cc1F [Example 3-31, (R)-3-({5-Ethoxy-1-[3-fluoro-2′-(1H-tetrazol-5-yl)biphenyl-4-ylmethyl]-1H-pyrazole-3-carbonyl}amino)-4-phenylbutyric acid] | ≤ 100 | ≤ 10000
8 | CCOc1cc(C(=O)N[C@@H](CC(=O)O)Cc2ccccc2)nn1Cc1ccc(-c2ccccc2-c2nnn[nH]2)cc1 [Example 3-32, (R)-3-({5-Ethoxy-1-[2′-(1H-tetrazol-5-yl)biphenyl-4-ylmethyl]-1H-pyrazole-3-carbonyl}amino)-4-phenylbutyric acid] | ≤ 100 | ≤ 10000
9 | CCCc1cc(C(=O)N[C@@H](CC(=O)O)Cc2ccccc2F)nn1Cc1ccc(-c2ccccc2-c2nnn[nH]2)cc1 [Example 3-33, (R)-4-(2-Fluorophenyl)-3-({5-propyl-1-[2′-(1H-tetrazol-5-yl)biphenyl-4-ylmethyl]-1H-pyrazole-3-carbonyl}amino)butyric acid] | ≤ 10 | ≤ 10000
10 | CCCc1cc(C(=O)N[C@@H](CC(=O)O)Cc2ccccc2Cl)nn1Cc1ccc(-c2ccccc2-c2nnn[nH]2)cc1 [Example 3-34, (R)-4-(2-Chlorophenyl)-3-({5-propyl-1-[2′-(1H-tetrazol-5-yl)biphenyl-4-ylmethyl]-1H-pyrazole-3-carbonyl}amino)butyric acid] | ≤ 10 | ≤ 10000
11 | CCCc1cc(C(=O)N[C@@H](CC(=O)O)Cc2ccccc2C)nn1Cc1ccc(-c2ccccc2-c2nnn[nH]2)cc1 [Example 3-35, (R)-3-({5-Propyl-1-[2′-(1H-tetrazol-5-yl)biphenyl-4-ylmethyl]-1H-pyrazole-3-carbonyl}amino)-4-o-tolylbutyric acid] | ≤ 10 | ≤ 10000
